Experimental data as given in patent publication US20020165216A1, “Cobalt-porphyrin complexes and use thereof as an anti-obesity agent” (MitoKor, priority 2000, published 2002).
“Also recorded” adds a separate entry of the source.

Legend:
[1] = Oxygen consumption catalyzed by Co-P in the presence of ascorbate/TMPD (Clark oxygen electrode); settings: 2 mM ascorbate, 40 μM TMPD
Description: (Co-MP). Such activity can be readily determined by, for example, the assay disclosed in Example 16. In that assay, redox activity is measured by oxygen consumption catalyzed by a Co-P test compound in the presence of ascorbate and TMPD.
Ten mM stock solutions of a Co-P of this invention (i.e., test compound) were prepared using ethanol as solvent. KCl media consists of 125 mM KCl, 2 mM K2HPO4, 20 mM HEPES, pH 7.0. Oxygen consumption measurements were carried out using a Clark type oxygen electrode (Rank Brothers Ltd., Cambridge, UK) and assay solutions were magnetically stirred during the course of the experiments. To 500 μl of assay solution (KCl media supplemented with 2 mM sodium ascorbate and 40 μM […] (TMPD)) is added 2 μl of a stock solution of test compound (40 μM final concentration) and the oxygen consumption rate is followed for 2-4 min. Subsequently, a 5 μl aliquot of a freshly made catalase solution (100 mg/ml solution in KCl media) is added to determine if H2O2 is generated via redox cycling of the test compound.
Initial rates are calculated from oxygen consumption slopes and rate of a solvent control is subtracted. […] An aliquot of a 10 mM stock solution of Co-MP (final concentration of 40 μM) was added to assay buffer containing 2 mM of ascorbate and 40 μM of TMPD. […] Addition of catalase results in conversion of H2O2 present in the assay solution to O2 and H2O.
Stock solutions of the test compound were at 10 mM. Aliquots of the stock solutions were added to 500 μl of assay buffer containing 2 mM of ascorbate and 40 μM of TMPD.
Representative Co-P compounds of this invention were prepared by the procedures disclosed above, and assayed by the procedure of Example 16 to measure oxygen consumption catalyzed by the test compound in the presence of ascorbate/TMPD. […] The above procedure was then repeated for other representative Co-P compounds of this invention, but utilizing different ligands and/or R groups.

Weight loss assay = assay type: in vivo, Male Sprague Dawley rats; settings: 12 mM in vehicle, 400 μl per 100 grams body weight, subcutaneous, nuchal area, 8 days
Description: (§1) Male Sprague Dawley rats (approximately 200 g) were purchased from Charles River Canada, Inc. and were shipped to the Animal Care Facility at the University of Vermont. Upon arrival they were housed in separate cages with corncob bedding and ad lib access to tap water and purina rat chow. The animal facility is maintained at a temperature of 71° F. +/− 1° F. with a 12-hour light/dark cycle, lights on at 6:00 am and off at 6:00 pm. Two days later (Day-3) all rats were shaved in the nuchal area and baseline color photographs of the nuchal area were taken (light halothane anesthesia was utilized to facilitate the shaving). Three days later (Day 0) experimental compounds were made up at 12 mM concentrations in vehicle (i.e., saline:PEG400:EtOH (5:4:1), pH 7.4). Animals were injected subcutaneously in the nuchal area with the various stock solutions at a dose of 400 μl per 100 grams body weight. Typical injection volumes, therefore, range from 1 to 1.5 ml per animal. Animals were injected using a modified Z-track technique to try and minimize outflow of injected compounds due to the high volume utilized. Each animal was weighed prior to injection and all injections were accomplished in an approximately two-hour period. No anesthesia was utilized for injections.
Animals subsequently underwent daily weighing with a Mettler 6 second integrating balance and had ad lib access to tap water and purina rat chow. At various intervals after injections, the nuchal area of rats was again photographed. […] The scale used was 0 for no lesions, 5 for the worst lesions with breakdown of the skin and open flow of exudates. Grades in-between were estimated by the operator based on the size and severity of the lesion. […] After 8 days, final photographs were taken and all animals were euthanized, marking the end of the experiment.
Means of body weights for each group were calculated and plotted over time (FIG. 9A), as were numerical means of the lesion severity index (FIG. 9B). In FIGS. 9A and 9B, C=noninjected control, V=vehicle injected control, A=Co-MP, E=Cpd. No. (1-6) and F=Cpd. No. (4-4). […] Cpd.

[2] = rat, in vivo; cited from earlier work
[3] = Lesion severity assay (nuchal injection site); assay type: in vivo, Male Sprague Dawley rats; settings: scale 0 no lesions to 5 worst lesions; 12 mM, 400 μl per 100 grams body weight, subcutaneous, nuchal area, 8 days
Description: as §1, with “No anesthesia was utilized for injections.” left out
Means of body weights for each group were calculated and plotted over time (FIG. 9A), as were numerical means of the lesion severity index (FIG. 9B). […]

[4] = tested on: SH-SY5Y neuroblastoma cells; test: Cellular assay for generation of reactive oxygen species (ROS); assay type: cell-based; settings: 30 minutes with test compound
Description: All cell culture reagents were incubated in a water bath at 37° C. for approximately 30 minutes. Existing media from a near confluent tissue culture flask containing SH-SY5Y neuroblastoma cells was aspirated using a flame sterilized glass transfer pipette attached to a trapped vacuum apparatus. Calcium free PBS buffer was pipetted into the tissue culture flask (2 ml for a 75 cm2 flask, 3 ml for a 175 cm^2 flask). The flask was tipped slightly to ensure that the buffer covers the cell culture and then the buffer was removed by aspiration. Trypsin media was pipetted into the tissue culture flask (2 ml for a 75 cm^2 flask, 3 ml for a 175 cm^2 flask) and evenly spread to ensure that the trypsin covered the cell culture. The cell culture was incubated with trypsin media for 4-6 minutes at room temperature. After cells were released from the flask, the flask was tilted to one corner. Using the existing media within the flask, the aggregated cells were collected towards one corner and repeatedly pipetted to obtain a single cell suspension. The cell suspension was transferred with a pipette into a 15 ml conical shaped centrifuge tube then cell culture media was added to the suspension up to a total volume of 14 ml. Ten μl aliquots were withdrawn and the cells were counted using a hemocytometer. The suspension was centrifuged at 200×g for 10 minutes, the supernatant was aspirated off, and the cell pellet was resuspended at 3.75×10^5 cells/ml in cell culture medium. Two hundred μl of cell suspension were aliquoted per well in the 96 well dish to obtain a final cell number of 75,000 cells per well. The plates were incubated overnight at 37° C. and 5% CO2 in a humidified cell incubator.
The medium was carefully removed from the wells by aspiration with an 18 g needle. The wells were gently rinsed once with 200 μl of warm Hanks balanced saline solution (HBSS, Gibco-BRL). […]
Stock solutions of test compound, such as Co-PP, Co-MP, or a Co-P of this invention, and of an H2O2 scavenger such as ebselen, were typically prepared in dimethylformamide or dimethylsulfoxide and diluted further into working concentrations using HBSS. […] The plate was read immediately in Cytofluor model 2350 system (Millipore; excitation wavelength: 485 nm; emission wavelength: 530 nm) for a 0 min timepoint reading. The cells were incubated for 30 minutes at room temperature with test compound following which a 30 min reading was taken. The change in RMF over the 30 minutes period was calculated for each well. […] The plate was then read in the Cytofluor (excitation wavelength: 360 nm; emission wavelength: 460 nm) and the Hoechst fluorescence values were used to normalize the DCFC-DA RMF data.

cobalt mesoporphyrin [Co-MP]
Relative Rate (oxygen consumption), effect of ligand ([1]; Table 1, Co-MP with L1 = L2 varied, 40 μM test compound, normalized to chloride salt of Co-MP = 1): 1 (assigned value)
Relative Rate (oxygen consumption), effect of ligand and R5 moiety ([1]; Table 2, 40 μM test compound, normalized to chloride salt of Co-MP = 1): 1 (assigned value)
Relative Rate (oxygen consumption), effect of ligand, R5 and A moiety ([1]; Table 3, 40 μM test compound, normalized to chloride salt of Co-MP = 1): 1 (assigned value)
Relative Rate (oxygen consumption), effect of ligand, R5, A and n moiety ([1]; Table 4, 40 μM test compound, normalized to chloride salt of Co-MP = 1): 1.0 (assigned
O2 consumption / redox cycling (in words) ([1]; cell free ascorbate/TMPD system): immediate depletion of dissolved O2; also recorded: triggers robust consumption of O2
body weight response (Weight loss assay): greatest body weight response
body weight regulating effect compared with Co-PP [2]: comparable biological profile
lesion severity [3]: greatest lesion severity
generation of reactive oxygen species (DCFC-DA fluorescence) [4]: reactive oxygen species were induced
